From patent publication US20050176619A1, “Antitumoral formulations of thioxanthenone” (priority 2001, published 2005)
Values after ≈ are worked out from the molar mass of the structure shown.

Assays:
[1] = Stability under acidic conditions; format: physicochemical
From the text: (§1) It is desirable in the treatment of tumors and cancers to provide the active pharmaceutical ingredient as a ready-to-use (RTU) solution formulation which is pharmaceutically stable over prolonged periods of storage. […] Accordingly, it is an object of the present invention to overcome these difficulties by providing a stable solution formulation of N-[[1-[[2-(diethylamino)ethyl]amino]-7-methoxy-9-oxothioxanthen-4-yl]methyl]formamide, or a pharmaceutically acceptable acid-addition salt thereof, in ready-to-use form.

Solubility in water = format: physicochemical
From the text: as §1

- stability under acidic conditions [1]: unstable under acidic conditions
- solubility (Solubility in water): 100 µg/mL (≈ 242 µM)
Compound: CCN(CC)CCNc1ccc(CNC=O)c2sc3ccc(OC)cc3c(=O)c12 [N-[[1-[[2-(diethylamino)ethyl]amino]-7-methoxy-9-oxothioxanthen-4-yl]methyl]formamide]
